In PubChem BioAssay (NCI):
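Interpolation was linear, between the two tested concentrations surrounding the appropriate level; five concentrations were tested over 48 hours in 96-well plates. GI50 = concentration required for 50% inhibition of growth. TGI is the concentration that stops growth completely.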 Where a SMILES comes first, the peptide text is derived from it. [ ]: non-standard residue; d: D form. The star is where a group is joined. Cbz = O=C(OCc1ccccc1)*; Aib = CC(C)(N)C(=O)O; OBn = c1ccc(CO*)cc1

Legend:
Assay in all cases: growth of human tumour cells (NCI), 48 h
[1] = tested on: ACHN renal
[2] = tested on: BT-549 breast
[3] = tested on: CAKI-1 renal
[4] = tested on: CCRF-CEM leukemia
[5] = tested on: KM12 colon
[6] = tested on: SF-295 CNS
[7] = tested on: SF-539 CNS
[8] = tested on: SK-MEL-5 melanoma
[9] = tested on: U251 CNS
[10] = tested on: UACC-62 melanoma

| Compound | TGI [1] [µM] | TGI [2] [µM] | TGI [3] [µM] | TGI [4] [µM] | TGI [5] [µM] | TGI [6] [µM] | TGI [7] [µM] | TGI [8] [µM] | TGI [9] [µM] | TGI [10] [µM] | GI50 [1] [µM] | GI50 [2] [µM] | GI50 [3] [µM] | GI50 [4] [µM] | GI50 [5] [µM] | GI50 [6] [µM] | GI50 [7] [µM] | GI50 [8] [µM] | GI50 [9] [µM] | GI50 [10] [µM] |
| --- | --- | --- | --- | --- | --- | --- | --- | --- | --- | --- | --- | --- | --- | --- | --- | --- | --- | --- | --- | --- |
| CC(C)Oc1cccc(N2C(=NCc3c[nH]c4ccccc34)Nc3ccncc3S2(=O)=O)c1 | > 100 | > 100 | > 100 | > 100 | > 100 | > 100 | > 100 | 27.7 | > 100 | 93.5 |  |  |  |  |  |  |  |  |  |  |
| O=C(O)c1cccc(S(=O)(=O)NN2C(=O)CSC2c2ccc(Cl)cc2Cl)c1 (stereo not given) | > 100 | > 100 | > 100 | > 100 | > 100 | > 100 | 40 | > 100 | 44.7 | 86.3 |  |  |  |  |  |  |  |  |  |  |
| C=CCn1c(=O)ccn(/C(=C/C(=O)OCC)C(=O)OCC)c1=O | 13.9 | 29.3 | 4.19 | 6.04 | 32.9 | > 87.7 | 49.5 | 29.1 | 27.6 | 29.7 |  |  |  |  |  |  |  |  |  |  |
| CCN(C(=O)N[C@@H](C)C(=O)N[C@@H](Cc1ccccc1)C(=O)OC)c1ccccc1 | > 100 | > 100 | > 100 | > 100 | > 100 | > 100 | > 100 | > 100 | > 100 | > 100 |  |  |  |  |  |  |  |  |  |  |
| O=C(CCSC1=NCCCN1)c1ccc(F)cc1 | 31.1 | 35.7 | 46.9 | 11.6 | 46.6 | 97.3 | 35.9 | 36.4 | 44.8 | 32.9 |  |  |  |  |  |  |  |  |  |  |
| Cc1cc(OP2(=O)NCc3ncccc3O2)ccc1Cl (stereo not given) | > 100 | > 100 | > 100 | > 100 | > 100 | > 100 | > 100 | > 100 | > 100 | > 100 |  |  |  |  |  |  |  |  |  |  |
| COc1ccc(/C=N/NC(=O)c2ccc(O)c(CN(C)C)c2)cc1 | > 100 | > 100 | > 100 | > 100 | > 100 | > 100 | > 100 | > 100 | > 100 | > 100 |  |  |  |  |  |  |  |  |  |  |
| COc1cc2c(cc1OCCCCCN1CCN(c3ncnc4ccccc34)CC1)N=CC1CCCN1C2=O (stereo not given) | 4.15 | 0.0628 | 1.17 | 0.0727 | 0.952 | 0.0671 | 0.0685 | 0.0338 | 3.98 | 0.0383 | 0.0523 | 0.0229 | 0.0292 | 0.0133 | 0.0289 | 0.0226 | 0.0268 | 0.018 | 0.0252 | 0.0196 |
| COc1cc(O)c2c(=O)c(OC)c(-c3ccc(OC)c(O)c3)oc2c1 | > 100 | > 100 | 74.4 | > 100 | > 100 | > 100 | > 100 | > 100 | > 100 | > 100 |  |  |  |  |  |  |  |  |  |  |
| CC(C)(CO)CNc1nc(N)nc(Cl)c1/C=N/O | > 100 | > 100 | > 100 | > 100 | > 100 | > 100 | > 100 | 18.8 | > 100 | > 100 |  |  |  |  |  |  |  |  |  |  |
| C=C1C(=O)[C@@]23CC[C@@H]4[C@@]5(C)CCC[C@@]4(OC5=O)[C@@]2(C)CC[C@@H]1C3 | 2.64 | 3.24 | 2.32 | > 33.7 | 10.2 | 20.9 | 6.3 | 3.49 | 7.05 | 3.3 |  |  |  |  |  |  |  |  |  |  |
| CCOC(=O)c1c2cccccc-2nc1Nc1cccc2c(C)ccnc12 | > 10 | > 10 | > 10 | > 10 | > 10 | > 10 | > 10 | > 10 | > 10 | > 10 |  |  |  |  |  |  |  |  |  |  |
| Cn1ncc2c(NCc3ccccc3)ncnc21 | > 100 | > 100 | > 100 | > 100 | > 100 | > 100 | > 100 | > 100 | > 100 | > 100 |  |  |  |  |  |  |  |  |  |  |
| Cc1cc(N(C)C)c2ccccc2[n+]1CCCCCCCCCC[n+]1c(C)cc(N(C)C)c2ccccc21 | 6.34 | 15.4 | 20 | 13.5 | 1.61 | 8.95 | 8.15 | 1.07 | 11.5 | 3.35 |  |  |  |  |  |  |  |  |  |  |
| CC(NC(=O)C(C)(C)NC(=O)C(CC(=O)OCc1ccccc1)NC(=O)OCc1ccccc1)C(N)=O (stereo not given) (Cbz-Asp(OBn)-[Aib]-Ala-NH2; configuration not given here) | > 100 | > 100 | > 100 | > 100 | > 100 | > 100 | > 100 | > 100 | > 100 | > 100 |  |  |  |  |  |  |  |  |  |  |
| c1ccc(C(C(=Nc2ccc(Cc3ccc(N=C(C(c4ccccc4)c4ccccc4)N4CC4)cc3)cc2)N2CC2)c2ccccc2)cc1 | 21.3 | 24.7 | 24.1 | 49.8 | 24.5 | 27.5 | 37.8 | 20.1 | 30.9 | 21.7 |  |  |  |  |  |  |  |  |  |  |
